From the NIST ThermoML archive (doi:10.1016/j.fluid.2019.112274)

Conditions: Liquid; for thermal diffusivity: Dynamic light scattering; for speed of sound: Brillouin light scattering

CCCCCCCCCC(=O)OCC [ethyl decanoate]
Conditions	speed of sound [m/s]	thermal diffusivity [m2/s]
295.34 K, 5000 kPa	–	8.46e-08
295.57 K, 10000 kPa	–	8.67e-08
295.72 K, 7000 kPa	–	8.54e-08
296.25 K, 3000 kPa	–	8.37e-08
296.31 K, 100 kPa	–	8.23e-08
300.71 K, 7000 kPa	1302.7	–
300.78 K, 100 kPa	1283.2	–
300.78 K, 10000 kPa	1329.5	–
300.79 K, 3000 kPa	1290.7	–
300.81 K, 5000 kPa	1295.7	–
310.13 K, 10000 kPa	–	8.5e-08
310.16 K, 5000 kPa	–	8.28e-08
310.19 K, 7000 kPa	–	8.37e-08
310.26 K, 3000 kPa	–	8.19e-08
310.29 K, 100 kPa	–	8.05e-08
310.58 K, 10000 kPa	1301.3	–
310.85 K, 100 kPa	1248.4	–
310.85 K, 5000 kPa	1265	–
310.93 K, 7000 kPa	1271.5	–
311.01 K, 3000 kPa	1258.4	–
320.9 K, 100 kPa	1213.6	–
320.91 K, 5000 kPa	1233.3	–
320.94 K, 3000 kPa	1226.4	–
320.98 K, 7000 kPa	1241.3	–
321 K, 10000 kPa	1269.6	–
324.97 K, 5000 kPa	–	8.07e-08
325.08 K, 7000 kPa	–	8.16e-08
325.11 K, 3000 kPa	–	7.98e-08
325.16 K, 10000 kPa	–	8.29e-08
325.23 K, 100 kPa	–	7.85e-08
330.76 K, 3000 kPa	1192.9	–
330.77 K, 7000 kPa	1210.4	–
330.79 K, 10000 kPa	1239.7	–
330.81 K, 100 kPa	1178.4	–
330.87 K, 5000 kPa	1199.5	–
339.12 K, 7000 kPa	1183	–
339.89 K, 10000 kPa	–	8.08e-08
340.05 K, 7000 kPa	–	7.95e-08
340.11 K, 5000 kPa	–	7.86e-08
340.16 K, 3000 kPa	–	7.78e-08
340.18 K, 100 kPa	–	7.64e-08
340.24 K, 100 kPa	1144.5	–
340.56 K, 10000 kPa	1209.4	–
340.76 K, 5000 kPa	1166.4	–
340.79 K, 3000 kPa	1157.6	–
350.12 K, 10000 kPa	1179.1	–
350.77 K, 3000 kPa	1124.1	–
350.89 K, 7000 kPa	1145.9	–
350.97 K, 5000 kPa	1133.3	–
350.99 K, 100 kPa	1106.3	–
355.14 K, 5000 kPa	–	7.65e-08
355.19 K, 100 kPa	–	7.44e-08
355.22 K, 7000 kPa	–	7.74e-08
355.25 K, 10000 kPa	–	7.86e-08
355.26 K, 3000 kPa	–	7.57e-08
360.27 K, 10000 kPa	1145.7	–
360.32 K, 100 kPa	1073.2	–
360.51 K, 5000 kPa	1102.5	–
360.55 K, 7000 kPa	1115.4	–
360.75 K, 3000 kPa	1090.9	–
369.47 K, 10000 kPa	1115.6	–
369.75 K, 3000 kPa	–	7.34e-08
369.77 K, 7000 kPa	–	7.5e-08
369.78 K, 5000 kPa	–	7.42e-08
369.78 K, 10000 kPa	–	7.63e-08
369.85 K, 100 kPa	–	7.21e-08
371.22 K, 100 kPa	1035.6	–
371.22 K, 7000 kPa	1081.7	–
371.31 K, 5000 kPa	1068.1	–
371.46 K, 3000 kPa	1054.6	–
379.56 K, 7000 kPa	1055.4	–
379.62 K, 5000 kPa	1040.4	–
379.78 K, 100 kPa	1005.8	–
379.78 K, 3000 kPa	1026.4	–
383.22 K, 10000 kPa	1069.6	–
384.3 K, 3000 kPa	–	7.11e-08
384.31 K, 100 kPa	–	6.99e-08
384.31 K, 7000 kPa	–	7.28e-08
384.32 K, 5000 kPa	–	7.2e-08
384.32 K, 10000 kPa	–	7.4e-08
389.06 K, 100 kPa	973.3	–
389.19 K, 5000 kPa	1010.9	–
389.22 K, 7000 kPa	1025	–
389.32 K, 3000 kPa	996.7	–
392.15 K, 10000 kPa	1042.5	–
399.55 K, 10000 kPa	–	7.23e-08
399.56 K, 3000 kPa	–	6.95e-08
399.57 K, 7000 kPa	–	7.11e-08
399.6 K, 100 kPa	–	6.82e-08
399.6 K, 5000 kPa	–	7.03e-08
400.76 K, 100 kPa	933.3	–
400.79 K, 3000 kPa	958.4	–
400.81 K, 7000 kPa	989.3	–
400.9 K, 5000 kPa	973.6	–
401.26 K, 10000 kPa	1015	–
408.81 K, 3000 kPa	933.4	–
409.55 K, 5000 kPa	946.8	–
410.3 K, 7000 kPa	960.7	–
410.85 K, 100 kPa	900.2	–
411.61 K, 10000 kPa	983.4	–
414.33 K, 10000 kPa	–	7.01e-08
414.35 K, 3000 kPa	–	6.73e-08
414.36 K, 7000 kPa	–	6.89e-08
414.41 K, 5000 kPa	–	6.81e-08
414.43 K, 100 kPa	–	6.61e-08
419.6 K, 100 kPa	871.4	–
419.67 K, 3000 kPa	899.1	–
419.68 K, 5000 kPa	915	–
